Data on 2 molecules can be found in patent US20090105072A1, “2-(Pyridin-2-Yl)-Pyrimidines for Use as Fungicides” (priority 2007, published 2009).

Molecules are shown by their SMILES.

The test system of the experiment is Puccinia recondita. Put plainly: Curative activity against brown rust of wheat caused by Puccinia recondita. The experiment is classed as in vivo. To be noted: 250 ppm, wheat seedlings cultivar Kanzler, 7 days after treatment, untreated plants 90% infected. The method, then:
The active compounds were prepared separately or together as a stock solution with 25 mg of active compound which was made up to 10 ml using a mixture of acetone and/or dimethyl sulfoxide (DMSO) and the emulsifier Wettoll® EM 31 (wetting agent having emulsifying and dispersing action based on the ethoxylated alkylphenols) in a volume ratio of solvent/emulsifier of 99 to 1. The mixture was then made up with water to 100 ml. This stock solution was diluted with the solvent/emulsifier/water mixture described to the concentration of active compound stated below.
Leaves of potted wheat seedlings of the cultivar “Kanzler” were inoculated with a spore suspension of brown rust of wheat (Puccinia recondite). The pots were then placed in a chamber with high atmospheric humidity (90 to 95%) and 20 to 22° C. for 24 hours. During this time, the spores germinated and the germ tubes penetrated into the leaf tissue. The next day, the infected plants were sprayed to runoff point with the above-described active compound solution having the active compound concentration stated below. After the spray coating had dried on, the test plants were cultivated in a greenhouse at temperatures between 20 and 22° C. and 65 to 70% relative atmospheric humidity for 7 days. The extent of the rust fungus development on the leaves was then determined.

On to `COc1ccc(-c2nc(-c3ncc4c(n3)CCCCC4)ccc2C)cn1` [Example 44], for which the “infection (extent of the rust fungus development on the leaves)” value was “no infection”. In the case of `COc1ccc(-c2nc(-c3ncc4c(n3)CCCCC4)ccc2C)cn1` [drawing 28] it was 90%.
